According to patent US10899769B2, “Imidazopiperazinone inhibitors of transcription activating proteins” (Board of Regents, The University of Texas System, priority 2018, dated 2021):

Legend:
[1] = target: BRD4(49-170) bromodomain (Homo sapiens (Human), UniProt O60885); assay: BRD4 AlphaScreen Assay; conditions: binding to biotin-H4(1-21) Ac-K5/8/12/16
Method in brief: (§1)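 AlphaScreen binding of GST-bromodomain to biotin-H4(1-21) Ac-K5/8/12/16: 5 nM CBP with 20 nM peptide, or 2.5 nM BRD4 with 10 nM peptide, in 50 mM HEPES 7.5, […], 1 mM TCEP, 0.003% Tween-20. Compound preincubated 30 min, then beads 2 h, room temperature. IC50 from variable-slope fit.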

[2] = target: GST-CBP(1081-1197) bromodomain (Homo sapiens (Human), UniProt Q92793); assay: CBP AlphaScreen Assay; conditions: binding to biotin-H4(1-21) Ac-K5/8/12/16
Method in brief: as §1

Chain of GST-CBP(1081-1197) bromodomain (Q92793 1081-1197): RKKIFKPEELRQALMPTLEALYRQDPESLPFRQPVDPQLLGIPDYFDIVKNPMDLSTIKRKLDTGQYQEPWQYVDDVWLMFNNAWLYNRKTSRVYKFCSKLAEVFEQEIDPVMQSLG

SMILES	IC50 [1] [µM]	IC50 [2] [µM]
CC1C(=O)N(C)Cc2c(-c3cccc4nc(-c5cnn(C)c5)c(C(F)F)cc34)nc(C3CCN(CC(F)F)CC3)n21 (stereo not shown) [Example 78, 3-(1-(2,2-difluoroethyl)piperidin-4-yl)-1-(3-(difluoromethyl)-2-(1-methyl-1H-pyrazol-4-yl)quinolin-5-yl)-5,7-dimethyl-7,8-dihydroimidazo[1,5-a] pyrazin-6(5H)-one]	3.77	0.041
Cc1ncc(-c2cc3ccc(C)c(-c4nc(C5CCOCC5)n5c4CN(C)C(=O)C5C)c3cn2)s1 (single isomer, unassigned) [Example 38a]	1.81	0.008
Cc1cn(-c2cc3cccc(-c4nc(C5CCOCC5)n5c4CN(C)C(=O)C5C)c3cn2)cn1 (single isomer, unassigned) [Example 30a, 5,7-dimethyl-1-(3-(4-methyl-1H-imidazol-1-yl)isoquinolin-8-yl)-3-(tetrahydro-2H-pyran-4-yl)-7,8-dihydroimidazo[1,5-a]pyrazin-6(5H)-one]	0.096	0.001
Cc1ncc(-c2cc3ccc(C)c(-c4nc(C5CCOCC5)n5c4CN(C)C(=O)C5C)c3cn2)s1 (single isomer, unassigned) [Example 38b]	4.86	0.302
Cc1nn(C)cc1-c1cc2ccc(F)c(-c3nc(C4CCOCC4)n4c3CN(C)C(=O)C4C)c2cn1 (single isomer, unassigned) [Example 91a, 1-(3-(1,3-dimethyl-1H-pyrazol-4-yl)-7-fluoroisoquinolin-8-yl)-5,7-dimethyl-3-(tetrahydro-2H-pyran-4-yl)-7,8-dihydroimidazo[1,5-a] pyrazin-6(5H)-one]	25	3.61
Cc1cn(-c2cc3ccc(F)c(-c4nc(C5CCOCC5)n5c4CN(C)C(=O)C5C)c3cn2)cn1 (single isomer, unassigned) [Example 33b, 1-(7-fluoro-3-(4-methyl-1H-imidazol-1-yl)isoquinolin-8-yl)-5,7-dimethyl-3-(tetrahydro-2H-pyran-4-yl)-7,8-dihydroimidazo[1,5-a]pyrazin-6(5H)-one]	2.12	0.006
Cc1cn(-c2nc3cccc(-c4nc(C5CC5)n5c4CN(C)C(=O)C5C)c3cc2C(F)F)cn1 (stereo not shown) [Example 11, 3-cyclopropyl-1-(3-(difluoromethyl)-2-(4-methyl-1H-imidazol-1-yl)quinolin-5-yl)-5,7-dimethyl-7,8-dihydroimidazo[1,5-a]pyrazin-6(5H)-one]	0.268	0.004

Continued, values first:

IC50 [1] [µM]	IC50 [2] [µM]	SMILES
2.96	0.159	CC1C(=O)N(C)Cc2c(-c3ccc4ccncc4c3)nc(C3CC3)n21 (stereo not shown) [Example 53, 3-cyclopropyl-1-(isoquinolin-7-yl)-5,7-dimethyl-7,8-dihydroimidazo[1,5-a] pyrazin-6(5H)-one]
11.7	0.271	CC1C(=O)N(C)Cc2c(-c3cccc4nc(-c5cnn(C)c5)c(C(F)(F)F)cc34)nc(C3CCOCC3)n21 (single isomer, unassigned) [Example 26b, 5,7-Dimethyl-1-(2-(1-methyl-1H-pyrazol-4-yl)-3-(trifluoromethyl)quinolin-5-yl)-3-(tetrahydro-2H-pyran-4-yl)-7,8-dihydroimidazo[1,5-a]pyrazin-6(5H)-one]
0.353	0.004	C[C@@H]1CN(C)C(=O)c2c(-c3cccc4nc(-c5cnn(C)c5)c(C(F)F)cc34)nc(C3CCOCC3)n21 [Example 5a, (R)-1-(3-(Difluoromethyl)-2-(1-methyl-1H-pyrazol-4-yl)quinolin-5-yl)-5,7-dimethyl-3-(tetrahydro-2H-pyran-4-yl)-7,8-dihydroimidazo[1,5-a]pyrazin-(5H)-one]
0.332	0.002	CC1C(=O)N(C)Cc2c(-c3cccc4nc(-c5cnn(C)c5)c(C#N)cc34)nc(C3CCOCC3)n21 (single isomer, unassigned) [Example 8b, 5-(5,7-dimethyl-6-oxo-3-(tetrahydro-2H-pyran-4-yl)-5,6,7,8-tetrahydroimidazo[1,5-a]pyrazin-1-yl)-2-(1-methyl-1H-pyrazol-4-yl)quinoline-3-carbonitrile]
